# What was measured:
# [1] = Toxic concentration against HIV-1 IIIB in C8166 T-cells; format: ADME, cell-based; details: human, read-out: TC50 (the source's name)
# [2] = system: C8166; assay: Ability to inhibit the replication of HIV-1 IIIB infected C8166 cells; format: functional, cell-based; details: Homo sapiens
SMILES,CC50 [1],EC50 [2]
CCCOP(=O)(NC(C)C(=O)OC)OCC1C=CC(n2cc(C)c(=O)[nH]c2=O)O1 (centres undefined),250 µM,200 µM
Cc1cn(C2C=CC(COP(=O)(OCC(Cl)(Cl)Cl)OCC(Cl)(Cl)Cl)O2)c(=O)[nH]c1=O (centres undefined),150 µM,0.4 µM
Cc1cn(C2C=CC(COP(=O)(OCC(F)(F)F)OCC(F)(F)F)O2)c(=O)[nH]c1=O (centres undefined),500 µM,15 µM
CCCOP(=O)(OCCC)OCC1C=CC(n2cc(C)c(=O)[nH]c2=O)O1 (centres undefined),200 µM,> 200 µM
COC(=O)C(C)NP(=O)(OCC1C=CC(n2cc(C)c(=O)[nH]c2=O)O1)OCC(Cl)(Cl)Cl (centres undefined),500 µM,0.2 µM
Cc1cn([C@H]2C=C[C@@H](CO)O2)c(=O)[nH]c1=O [STAVUDINE],50 µM,0.08 µM
CCCOP(=O)(OCC1C=CC(n2cc(C)c(=O)[nH]c2=O)O1)OCC(Cl)(Cl)Cl (centres undefined),500 µM,20 µM
